Read-outs that look alike come from different tables or passages of the source.
Key:
sarcoma 180 cells = assay: Inhibition of intracellular phosphorylation of 5-FU in cancer cells; type: cell-based, mouse; settings: for inhibition at 10 µM / inhibition at 100 µM: Mus musculus, Sarcoma-180, 0.5 h
Method: (§1) • (a) Test liquid preparation 1: Compound I-2 or I-10 of the present invention was dissolved to a concentration of 1 mM in cold physiological saline. The resulting product was further diluted 10-fold with physiological saline, yielding a 100-μM solution. • (b) Test liquid preparation 2: As an OPRT inhibitor, which inhibits the phosphorylation of 5-FU, citrazinic acid (Citra.A.) was dissolved to a concentration of 1 mM in cold physiological saline, and further diluted 10-fold with physiological saline, yielding a 100-μM solution. • (c) Preparation of cancer cell suspension: Ascites-type sarcoma 180 cells were preliminarily transplanted intraperitoneally into an ICR mouse and proliferated therein for use in the test as raw (intact) cells. The proliferated cells were isolated and then washed with physiological saline. […] Immediately after the completion of the reaction, 4 mL of a cold Hanks solution was added to the reaction solution, and the cells were washed and separated by centrifugation. After this procedure was repeated twice, 2 mL of a cold 5% trichloroacetic acid (TCA) solution was added to the cell pellet to disrupt the cells, and 5-FU and its nucleotide metabolites were extracted. Subsequently, a portion of the nucleic acid extract was applied to a silica gel 60F254 plate and developed with a mixed liquid comprising chloroform-methanol-acetic acid (17:3:1) to isolate the nucleotide moiety. The radioactivity thereof was measured and the concentration of 5-FU phosphorylation was measured.
as §1, with “1: Compounds I-9, I-11, I-12, and I-13” for “1: Compound I-2 or I-10”, “invention were separately” for “invention was”, “saline. Each of the” for “saline. The”, “resulting products” for “resulting product”, “acid” for “acid (Citra.A.)”

[1] = system: human gastric cancer strain (SC-2); settings: 14 days, day 15; for Average weight change (%) / Tumor proliferation inhibition ratio (%): Test Example 3; for BWC (% initial) / IR (%): Test Example 6
Method: The resulting product was stirred with a stirrer at room temperature for about 10 minutes. […] Thereafter, ultrasonic treatment was performed under ice cooling for about 5 minutes, thereby obtaining a BOF-A2 drug liquid to be used at a dose of 14 mg/kg/day, 21 mg/kg/day, or 28 mg/kg/day. • (f) Experiment: The human gastric cancer strain (SC-2) was subcutaneously transplanted into the back of a BALB/cA-nu mouse and preliminarily proliferated therein. The proliferated strain was extracted, cut into about 2 mm square pieces with scissors in physiological saline, and subcutaneously inoculated to the right axillary region of mice of the same strain, 5 to 6 weeks of age, using a transplantation needle. […] Then, drug administration was initiated from the next day. Each of the test liquids shown in (a) to (e) above was administered orally to the mice in each of the test drug groups using a sonde for oral administration at a dose of 0.1 ml per 10 g body weight once a day for 14 continuous days. In the same manner as the above, the cancer-bearing mice in the control group were subjected to oral administration of only 0.5% HPMC liquid for 14 continuous days.
The tumor volume of each mouse in each group before the initiation of the treatment, on day 3, day 5, day 8 (1 week after), day 11, and day 15 (2 weeks after), i.e., after termination of the administration, was calculated using Equation 1 below, and respective relative tumor volume (RTV) relative to the tumor volume at the time of initiation of the treatment was calculated. In relation to the antitumor effect, the average value of the tumor proliferation inhibition ratio (IR; %) was calculated from the average tumor volume of each treatment group on day 15 (after termination of the treatment) relative to that of the control group on day 15, using Equation 2. […] Along therewith, a weight change ratio was calculated from the body weight of the mice at the time of the termination of the drug administration relative to the body weight of the mice at the time of the initiation of the administration, using Equation 3. […] Tumor volume(mm^3)=(major axis)×(minor axis)^2×½ Equation 1: Tumor proliferation inhibition ratio(IR, %)=[1−(average tumor volume of treatment group)/(average tumor volume of control group)]×100 Equation 2: Average weight change ratio(%)=[(average weight on Day 15)−(average weight on Day 1)]/(average weight on Day 1)×100 Equation 3: […]
The resulting product was stirred with a stirrer at room temperature for about 10 minutes. […] The proliferated strain was extracted, cut into about 2 mm square pieces with scissors in physiological saline, and subcutaneously inoculated to the right axillary region of mice of the same strain, 5 to 6 weeks of age, using a transplantation needle. […] Then, drug administration was initiated from the next day. Each of the test liquids shown in (a) to (c) above was administered orally to the mice in each of the test drug groups using a sonde for oral administration at a dose of 0.1 ml per 10 g body weight once a day for 14 continuous days. In the same manner as the above, the cancer-bearing mice in the control group were subjected to oral administration of only 0.5% HPMC liquid for 14 continuous days.
The tumor volume of each mouse in each group before the initiation of the treatment, on day 3, day 5, day 8 (1 week after), day 11, and day 15 (2 weeks after), i.e., after termination of the administration, was calculated using Equation 1 below, and respective relative tumor volume (RTV) relative to the tumor volume at the time of initiation of the treatment was calculated. In relation to the antitumor effect, the average value of the tumor proliferation inhibition ratio (IR; %) was calculated from the average tumor volume of each treatment group on day 15 (after termination of the treatment) relative to that of the control group on day 15, using Equation 2.

[2] = Conc. 10 μM, 30 min, Table 3 run with control 60.93
[3] = Conc. 100 μM, 30 min, Table 3 run with control 60.93
[4] = Conc. 10 μM, 30 min, Table 3 run with control 60.93, read-out: % Inhibition of 5-FU phosphorylation
[5] = Conc. 100 μM, 30 min, Table 3 run with control 60.93, read-out: % Inhibition of 5-FU phosphorylation
[6] = concentration of 10 μM, reaction for 30 minutes, read-out: percent inhibition of intracellular phosphorylation of 5-FU
[7] = concentration of 100 μM, reaction for 30 minutes, read-out: percent inhibition of intracellular phosphorylation of 5-FU
[8] = Conc. 10 μM, 30 min, Table 3 run with control 63.32
[9] = Conc. 100 μM, 30 min, Table 3 run with control 63.32
[10] = Conc. 10 μM, 30 min, Table 3 run with control 63.32, read-out: % Inhibition of 5-FU phosphorylation
[11] = Conc. 100 μM, 30 min, Table 3 run with control 63.32, read-out: % Inhibition of 5-FU phosphorylation
[12] = Conc. 10 μM, 30 min. Incubation, 5-FU 2 μM, Table 6
[13] = Conc. 100 μM, 30 min. Incubation, 5-FU 2 μM, Table 6
[14] = Conc. 10 μM, 30 min. Incubation, 5-FU 2 μM, Table 6, read-out: Inhibition (%) of phosphorylation of 5-FU
[15] = Conc. 100 μM, 30 min. Incubation, 5-FU 2 μM, Table 6, read-out: Inhibition (%) of phosphorylation of 5-FU

| Structure (SMILES) | F-nucleotides (sarcoma 180 cells; [2]) [pmol/1 × 10^7 cells] | F-nucleotides (sarcoma 180 cells; [3]) [pmol/1 × 10^7 cells] | inhibition at 10 µM (sarcoma 180 cells; [4]) [%] | inhibition at 100 µM (sarcoma 180 cells; [5]) [%] | inhibition at 10 µM (sarcoma 180 cells; [6]) [%] | inhibition at 100 µM (sarcoma 180 cells; [7]) [%] | F-nucleotides (sarcoma 180 cells; [8]) [pmol/1 × 10^7 cells] | F-nucleotides (sarcoma 180 cells; [9]) [pmol/1 × 10^7 cells] | inhibition at 10 µM (sarcoma 180 cells; [10]) [%] | inhibition at 100 µM (sarcoma 180 cells; [11]) [%] | RNA Fraction (sarcoma 180 cells; [12]) [pmol/1 × 10^7 cells] | RNA Fraction (sarcoma 180 cells; [13]) [pmol/1 × 10^7 cells] | inhibition at 10 µM (sarcoma 180 cells; [14]) [%] | inhibition at 100 µM (sarcoma 180 cells; [15]) [%] | other results |
| --- | --- | --- | --- | --- | --- | --- | --- | --- | --- | --- | --- | --- | --- | --- | --- |
| CCOCn1cc(F)c(=O)n(C(=O)c2cccc(C(=O)Oc3cc(OC(=O)c4cc(O)nc(O)c4)c(Cl)cn3)c2)c1=O [Compound I-2, 3-{3-[4-(2,6-dihydroxyisonicotinoyloxy)-5-chloro-2-pyridyloxycarbonyl]benzoyl}-1-ethoxymethyl-5-fluorouracil] | 47.26 | 28.88 | 22.4 | 52.6 | 20 to 30 | 50 to 60 |  |  |  |  |  |  |  |  | Average weight change (%) ([1]; 15.0 mg/kg/day oral): −1.13%; Tumor proliferation inhibition ratio (%) ([1]; 15.0 mg/kg/day oral): 41.1%; Average weight change (%) ([1]; 22.5 mg/kg/day oral): −4.18%; Tumor proliferation inhibition ratio (%) ([1]; 22.5 mg/kg/day oral): 56.0%; Average weight change (%) ([1]; 30.0 mg/kg/day oral): 1.76%; Tumor proliferation inhibition ratio (%) ([1]; 30.0 mg/kg/day oral): 67.9% |
| CCOCn1cc(F)c(=O)n(C(=O)c2cccc(C(=O)Oc3cc(OC(=O)c4cc(OC(C)=O)nc(OC(C)=O)c4)c(Cl)cn3)c2)c1=O [Compound I-10, 3-{3-[4-(2,6-diacetyloxyisonicotinoyloxy)-5-chloro-2-pyridyloxycarbonyl]benzoyl}-1-ethoxymethyl-5-fluorouracil] |  |  |  |  | 20 to 30 | 50 to 60 | 40.71 | 27.62 | 35.7 | 56.4 |  |  |  |  | Average weight change (%) ([1]; 25.7 mg/kg/day oral): 1.97%; Tumor proliferation inhibition ratio (%) ([1]; 25.7 mg/kg/day oral): 31.9%; Average weight change (%) ([1]; 34.2 mg/kg/day oral): −0.05%; Tumor proliferation inhibition ratio (%) ([1]; 34.2 mg/kg/day oral): 51.0%; Average weight change (%) ([1]; 42.8 mg/kg/day oral): −4.31%; Tumor proliferation inhibition ratio (%) ([1]; 42.8 mg/kg/day oral): 57.7% |
| CCOCn1cc(F)c(=O)n(C(=O)c2cccc(C(=O)Oc3cc(OC(=O)c4cc(OC(=O)CC)nc(OC(=O)CC)c4)c(Cl)cn3)c2)c1=O [Compound I-11, 3-{3-[4-(2,6-dipropionyloxyisonicotinoyloxy)-5-chloro-2-pyridyloxycarbonyl]benzoyl}-1-ethoxymethyl-5-fluorouracil] |  |  |  |  | 35 to 57 | 56 to 63 |  |  |  |  | 40.71 | 27.62 | 35.7 | 56.4 | BWC (% initial) ([1]; 26.7 mg/kg oral): +1.68 % initial; IR (%) ([1]; 26.7 mg/kg oral, equivalent to 7.5 mg/kg of S-1): 17.0%; BWC (% initial) ([1]; 35.6 mg/kg oral): +1.82 % initial; IR (%) ([1]; 35.6 mg/kg oral, equivalent to 10 mg/kg of S-1): 32.0%; BWC (% initial) ([1]; 44.5 mg/kg oral): −3.94 % initial; IR (%) ([1]; 44.5 mg/kg oral, equivalent to 12.5 mg/kg of S-1): 47.3% |
| CCOCn1cc(F)c(=O)n(C(=O)c2cccc(C(=O)Oc3cc(OC(=O)c4cc(OC(=O)C5CCCC5)nc(OC(=O)C5CCCC5)c4)c(Cl)cn3)c2)c1=O [Compound I-9, 3-{3-[4-(2,6-dicyclopentanecarbonyloxyisonicotinoyloxy)-5-chloro-2-pyridyloxycarbonyl]benzoyl}-1-ethoxymethyl-5-fluorouracil] |  |  |  |  | 35 to 57 | 56 to 63 |  |  |  |  | 27.42 | 23.61 | 56.7 | 62.7 | BWC (% initial) ([1]; 49.5 mg/kg oral): +4.67 % initial; IR (%) ([1]; 49.5 mg/kg oral, equivalent to 12.5 mg/kg of S-1): 29.5% |
| O=C(O)c1cc(O)nc(O)c1 [Citra. A., citrazinic acid, reference compound] | 55.78 | 51.72 | 8.5 | 15.1 |  | 5 to 15 | 62.19 | 60.13 | 1.8 | 5.1 | 62.19 | 60.13 | 1.8 | 5 |  |
